In ChEMBL document CHEMBL1155902, “Nitrogen-containing flavonoid analogues as CDK1/cyclin B inhibitors: synthesis, SAR analysis, and biological activity” (Bioorg Med Chem, 2008):

Target: Cyclin-dependent kinase 1/cyclin B1 (Homo sapiens, UniProt P06493)
Assay: Inhibition of Cdk1/cyclin B
Type: protein-complex assay

Cyclin-dependent kinase 1/cyclin B1, sequence (P06493 whole entry): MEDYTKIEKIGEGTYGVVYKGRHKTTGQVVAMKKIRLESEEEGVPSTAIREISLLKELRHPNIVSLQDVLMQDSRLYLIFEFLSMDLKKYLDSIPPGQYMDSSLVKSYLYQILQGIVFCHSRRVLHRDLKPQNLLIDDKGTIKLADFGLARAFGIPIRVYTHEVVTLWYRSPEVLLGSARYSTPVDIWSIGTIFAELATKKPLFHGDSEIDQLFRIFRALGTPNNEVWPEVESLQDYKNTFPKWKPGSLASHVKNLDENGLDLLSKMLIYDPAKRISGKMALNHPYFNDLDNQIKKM
Cyclin-dependent kinase 1/cyclin B1, sequence (P14635 whole entry, further chain): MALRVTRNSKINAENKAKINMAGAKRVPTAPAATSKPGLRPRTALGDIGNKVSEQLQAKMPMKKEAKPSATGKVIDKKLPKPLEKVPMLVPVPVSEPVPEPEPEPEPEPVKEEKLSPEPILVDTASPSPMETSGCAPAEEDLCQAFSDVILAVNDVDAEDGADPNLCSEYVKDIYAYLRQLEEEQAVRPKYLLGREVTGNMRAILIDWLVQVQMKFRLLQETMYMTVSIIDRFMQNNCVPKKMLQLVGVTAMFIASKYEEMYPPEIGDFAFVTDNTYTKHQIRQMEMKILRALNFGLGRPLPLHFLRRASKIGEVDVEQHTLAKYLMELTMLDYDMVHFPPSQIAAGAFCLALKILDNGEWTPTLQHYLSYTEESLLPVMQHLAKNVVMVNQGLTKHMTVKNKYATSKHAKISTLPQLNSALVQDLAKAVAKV

`COc1ccc(C(=O)/C=C/c2ccccc2)c(O)c1` and `COc1cc(O)c(C(=O)/C=C/c2ccccc2)cc1CN(C)C` cannot be ordered by IC50: over 20 µM for the first, over 20 µM for the second.

Going from `CN(C)Cc1c(O)cc(O)c2c(=O)c(O)c(-c3ccc(O)c(O)c3)oc12` to `CN1CCN(Cc2c(O)cc(O)c3c(=O)c(O)c(-c4ccc(O)c(O)c4)oc23)CC1`, the IC50 rises from 15.7 µM to over 20 µM. The first is the more potent here.

`O=c1cc(-c2ccccc2)oc2c(CN3CCCC3)c(O)c(O)c(O)c12` and `O=c1cc(-c2ccccc2)oc2c(CN3CCCCC3)c(O)c(O)c(O)c12` are within 1.5-fold of each other in IC50: 1.22 µM for the first, 1.28 µM for the second.

`COc1cc(O)c(C(=O)/C=C/c2ccccc2)cc1CN1CCCCC1` and `COc1cc(O)c(C(=O)/C=C/c2ccccc2)cc1CN1CCCC1` cannot be ordered by IC50: over 20 µM for the first, over 20 µM for the second.

First: CN(C)Cc1c(O)c(O)c(O)c2c(=O)cc(-c3ccccc3)oc12
Second: CN1CCN(Cc2c(O)c(O)c(O)c3c(=O)cc(-c4ccccc4)oc23)CC1
The IC50 of the first is 3.9-fold higher: 1.05 µM for the first, 0.27 µM for the second.

`O=c1cc(-c2ccccc2)oc2c(CN3CCSCC3)c(O)c(O)c(O)c12` and `O=c1cc(-c2ccccc2)oc2c(CN3CCOCC3)c(O)c(O)c(O)c12` are within 1.5-fold of each other in IC50: 0.38 µM for the first, 0.28 µM for the second.

First: O=c1c(O)c(-c2ccc(O)c(O)c2)oc2c(CN3CCCCC3)c(O)cc(O)c12
Second: O=c1c(O)c(-c2ccc(O)c(O)c2)oc2c(CN3CCOCC3)c(O)cc(O)c12
The IC50 of the first is lower: 18.7 µM for the first, over 20 µM for the second. The first is the more potent here.

`COc1cc(O)c(C(=O)/C=C/c2ccccc2)cc1CN1CCOCC1` and `COc1cc(O)c(C(=O)/C=C/c2ccccc2)cc1CN1CCSCC1` cannot be ordered by IC50: over 20 µM for the first, over 20 µM for the second.

Going from `COc1cc(O)c(C(=O)/C=C/c2ccccc2)cc1CN1CCN(C)CC1` to `O=c1cc(-c2ccccc2)oc2cc(O)c(O)c(O)c12` [BAICALEIN], the IC50 falls from over 20 µM to 6.53 µM. The second is the more potent here.

`COC(=O)[C@H]1O[C@@H](Oc2cc3oc(-c4ccccc4)cc(=O)c3c(O)c2O)[C@H](O)[C@H](O)[C@@H]1O` [BAICALIN METHYLATE] and `O=C(O)[C@H]1O[C@@H](Oc2cc3oc(-c4ccccc4)cc(=O)c3c(O)c2O)[C@H](O)[C@@H](O)[C@@H]1O` [BAICALIN] are within 1.5-fold of each other in IC50: 11.6 µM for the first, 14.4 µM for the second.

In the case of `O=c1c(O)c(-c2ccc(O)c(O)c2)oc2cc(O)cc(O)c12` [QUERCETIN], the IC50 is reported as over 20 µM.
